# Target: Serine/threonine-protein kinase Nek2 (Homo sapiens, UniProt P51955)
# Test: Inhibition of NEK2 (unknown origin) assessed as dissociation constant
# Chain of Serine/threonine-protein kinase Nek2 (P51955 whole entry): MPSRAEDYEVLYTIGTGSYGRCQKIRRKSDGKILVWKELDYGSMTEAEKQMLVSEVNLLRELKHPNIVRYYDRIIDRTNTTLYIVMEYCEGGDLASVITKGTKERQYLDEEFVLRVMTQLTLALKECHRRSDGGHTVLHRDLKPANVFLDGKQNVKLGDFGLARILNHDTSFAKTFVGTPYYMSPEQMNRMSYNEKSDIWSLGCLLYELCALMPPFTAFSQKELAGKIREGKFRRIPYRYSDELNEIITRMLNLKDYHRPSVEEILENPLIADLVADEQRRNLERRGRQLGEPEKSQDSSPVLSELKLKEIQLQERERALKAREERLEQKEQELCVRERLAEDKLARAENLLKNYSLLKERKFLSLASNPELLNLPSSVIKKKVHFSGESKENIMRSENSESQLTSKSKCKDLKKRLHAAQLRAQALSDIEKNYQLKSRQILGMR
smiles,measurement,value
COc1cccc(C2=C(Nc3ccc(Cl)c(C(=O)O)c3)C(=O)NC2=O)c1,Kd,460 nM
